Converted amounts (≈) assume the structure as drawn. “And” between values parts separate entries of the source, which are not always exact repeats. Equal values may be shown once. Read-outs that look alike come from different tables or passages of the source.
Legend:
[1] = target: human CoaB (HCoaB) (Homo sapiens, UniProt Q9HAB8); assay: EnzChek pyrophosphate assay, HCoaB; assay type: biochemical; conditions: HCoaB, replicates R1-R3
[2] = target: MsmCoaBC (Mycolicibacterium smegmatis, UniProt A0QWT2); assay: EnzChek pyrophosphate assay, CoaB activity of MsmCoaBC; assay type: biochemical, Mycobacterium smegmatis; conditions: for Activity: slope of absorbance at 360 nm vs time (s); for inhibition, IC50 MsmCoaBC 2b / reaction rate (slope of absorbance at 360 nm over time), IC50 MsmCoaBC 2b / remaining activity relative to control, IC50 MsmCoaBC 2b: triplicate
Method: The commercially available EnzChek pyrophosphate assay kit (E-6645) (Life Technologies) was used for this assay. […] In the assays with HCoaB an enzyme concentration of 1 µM was used instead. […] Assays were performed on either a CLARIOstar or PHERAstar microplate reader (BMG Labtech) in 96-well plates (Greiner). A substrate mixture containing the substrates and the inhibitor was pre-incubated at 25 °C for 10 min. An enzyme solution was prepared and separately pre-incubated at 25 °C for 10 min. The reaction was initiated by the addition of the substrates to the solution containing the enzyme to a final volume of 75 µL. Enzymatic activity was monitored by following the absorbance at 360 nm for 30 min (100 cycles/20 s each cycle) and only the steady-state region of the assay was used for data analysis. Assays were performed in triplicates, including a negative control (lacking PPA) and a positive control (lacking inhibitor).

[3] = target: T1, MtbCoaBC (Mycobacterium tuberculosis, UniProt P9WNZ1); assay: High-throughput end-point pyrophosphate quantification assay (Biomol Green); assay type: biochemical; conditions: MtbCoaB activity; end-point, 2 µM CTP, 40 µM L-cysteine, 30 µM PPA; read-out: IC50 biomol green assay
[4] = target: T1, MtbCoaBC; assay: Competition assays, first half of CoaB reaction (EnzChek, variable CTP or PPA); assay type: biochemical; conditions: for mode of inhibition: in words
[5] = target: T1, MtbCoaBC; assay: CMP quantification assay (UPLC), second half of CoaB reaction, variable L-cysteine; assay type: biochemical; conditions: for uM CMP/uM protein.s-1 (rate of CMP formation): MtbCoaBC 32nM, replicates R1-R3
[6] = system: M. tuberculosis H37Rv; assay: MIC determination in different media; assay type: cell-based; conditions: Mycobacterium tuberculosis, read-out: Minimum inhibitory concentration (MIC)
[7] = system: M. tuberculosis coaBC Tet-OFF conditional knockdown; assay type: cell-based, Mycobacterium tuberculosis; conditions: GAST/Fe minimal media
[8] = 0.015625 uM 2b, relative to average DMSO CT, replicates R1-R3
[9] = 0.015625 uM 2b, replicates R1-R3
[10] = 0.03125 uM 2b, relative to average DMSO CT, replicates R1-R3
[11] = 0.03125 uM 2b, replicates R1-R3
[12] = 0.0625 uM 2b, relative to average DMSO CT, replicates R1-R3
[13] = 0.25 uM 2b, relative to average DMSO CT, replicates R1-R3
[14] = 0.5 uM 2b, relative to average DMSO CT, replicates R1-R3
[15] = inhibitor concentration 1 (log 0; unit not given)
[16] = inhibitor concentration 2 (log 0.30103; unit not given)

Sequence of MsmCoaBC (A0QWT2 whole entry): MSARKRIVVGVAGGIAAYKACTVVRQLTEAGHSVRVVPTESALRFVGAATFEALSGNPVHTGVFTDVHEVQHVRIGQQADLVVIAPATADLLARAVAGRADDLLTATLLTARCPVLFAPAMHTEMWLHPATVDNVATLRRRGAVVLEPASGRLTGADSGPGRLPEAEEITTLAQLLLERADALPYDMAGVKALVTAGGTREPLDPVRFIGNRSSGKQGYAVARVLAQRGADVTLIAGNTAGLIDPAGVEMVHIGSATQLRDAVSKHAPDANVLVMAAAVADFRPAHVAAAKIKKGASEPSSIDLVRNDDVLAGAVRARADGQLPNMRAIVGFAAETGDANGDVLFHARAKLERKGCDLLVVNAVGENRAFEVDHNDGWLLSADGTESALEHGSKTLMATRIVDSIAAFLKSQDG
Sequence of human CoaB (HCoaB) (Q9HAB8 whole entry): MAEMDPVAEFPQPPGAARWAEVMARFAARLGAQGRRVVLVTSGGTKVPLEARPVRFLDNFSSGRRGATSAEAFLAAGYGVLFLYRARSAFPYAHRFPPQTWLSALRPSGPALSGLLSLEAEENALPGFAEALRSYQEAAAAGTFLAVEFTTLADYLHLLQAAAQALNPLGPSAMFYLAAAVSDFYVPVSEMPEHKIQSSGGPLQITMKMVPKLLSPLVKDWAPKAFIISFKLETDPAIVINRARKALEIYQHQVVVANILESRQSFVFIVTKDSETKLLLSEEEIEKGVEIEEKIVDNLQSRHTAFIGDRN
T1 sequence (P9WNZ1 whole entry): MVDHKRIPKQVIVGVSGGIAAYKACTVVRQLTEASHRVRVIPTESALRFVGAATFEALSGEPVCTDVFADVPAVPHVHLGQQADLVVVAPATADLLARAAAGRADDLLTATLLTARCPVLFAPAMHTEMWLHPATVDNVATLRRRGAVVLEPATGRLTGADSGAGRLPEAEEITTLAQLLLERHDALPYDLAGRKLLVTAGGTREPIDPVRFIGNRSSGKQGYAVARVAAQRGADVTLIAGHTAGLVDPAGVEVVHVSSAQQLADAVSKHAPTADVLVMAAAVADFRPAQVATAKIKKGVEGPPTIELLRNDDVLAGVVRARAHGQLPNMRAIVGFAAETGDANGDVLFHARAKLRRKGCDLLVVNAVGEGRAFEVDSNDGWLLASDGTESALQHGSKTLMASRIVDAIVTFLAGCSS

For O=c1cc(-c2ccc(O)c(O)c2)oc2cc(O)c(O)cc12 [compound 2b], the activity at 50 µM ([1]; 50 uM compound, relative to average DMSO CT) was 59%, the Activity % ([1]; 50 uM compound, relative to average DMSO CT, 50 µM) was 54.55% and 56.86% and the inhibition at 50 µM ([1]; 50 uM compound) was 45.5%. For the same molecule, the Inhibition % ([1]; 50 uM compound, 50 µM) was 43.14% and 41.04%, the activity at 100 µM ([1]; 100 uM compound, relative to average DMSO CT) was 38% and the Activity % ([1]; 100 uM compound, relative to average DMSO CT, 100 µM) was 40.03% and 34.07%. For the same molecule, the inhibition at 100 µM ([1]; 100 uM compound) was 60%, the Inhibition % ([1]; 100 uM compound, 100 µM) was 65.93% and 62.02% and the IC50 [2] was 180 ± 20 nM. For the same molecule, the Activity % [2, 8] was 94.35% and 94.28%, the activity at 0.015625 µM [2, 8] was 95.3% and the Inhibition % [2, 9] was 5.72% and 4.75%. For the same molecule, the inhibition at 0.015625 µM [2, 9] was 5.65%, the Activity [2, 9] was 0.0002955 and 0.0002927 and 0.0002925 and the Activity % [2, 10] was 88.08% and 86.2%. The activity at 0.03125 µM [2, 10] was 89.5%, the Inhibition % [2, 11] was 13.80% and 10.50% and the inhibition at 0.03125 µM [2, 11] was 11.9%. For the same molecule, the Activity [2, 11] was 0.0002776 and 0.0002732 and 0.0002674, the Activity % [2, 12] was 71.12% and 70.67% and the activity at 0.0625 µM [2, 12] was 74.4%. For the same molecule, the Inhibition % ([2]; 0.0625 uM 2b, replicates R1-R3) was 29.33% and 25.59%, the inhibition at 0.0625 µM ([2]; 0.0625 uM 2b, replicates R1-R3) was 28.9% and the Activity ([2]; 0.0625 uM 2b, replicates R1-R3) was 0.0002308 and 0.0002206 and 0.0002192. The Activity % [2, 13] was 41.76% and 47.03%, the activity at 0.25 µM [2, 13] was 45.6% and the Inhibition % ([2]; 0.25 uM 2b, replicates R1-R3) was 52.97% and 54.45%. The inhibition at 0.25 µM ([2]; 0.25 uM 2b, replicates R1-R3) was 58.2%, the Activity ([2]; 0.25 uM 2b, replicates R1-R3) was 0.0001413 and 0.0001296 and 0.0001459 and the Activity % [2, 14] was 29.05% and 29.76%. For the same molecule, the activity at 0.5 µM [2, 14] was 30.5%, the Inhibition % ([2]; 0.5 uM 2b, replicates R1-R3) was 70.24% and 69.54% and the inhibition at 0.5 µM ([2]; 0.5 uM 2b, replicates R1-R3) was 71%. The Activity ([2]; 0.5 uM 2b, replicates R1-R3) was 0.000094507 and 0.000090122 and 0.000092326, the “inhibition, IC50 MsmCoaBC 2b” value [2, 15] was 88.05 and 84.53 and 91.37 and the “reaction rate (slope of absorbance at 360 nm over time), IC50 MsmCoaBC 2b” value [2, 15] was 0.000026783 and 0.000037077 and 0.000047977. For the same molecule, the “remaining activity relative to control, IC50 MsmCoaBC 2b” value [2, 15] was 8.633 and 11.95 and 15.47, the “inhibition, IC50 MsmCoaBC 2b” value [2, 16] was 96.00 and 96.49 and 94.20 and the “reaction rate (slope of absorbance at 360 nm over time), IC50 MsmCoaBC 2b” value [2, 16] was 0.000017982 and 0.000012403 and 0.000010882. The “remaining activity relative to control, IC50 MsmCoaBC 2b” value [2, 16] was 5.796 and 3.998 and 3.508, the IC50 [3] was 100 nM and the mode of inhibition ([4]; relative to CTP) was “mixed inhibition”. The mode of inhibition ([4]; relative to PPA) was “uncompetitive inhibition”, the Inibition type ([4]; variable substrate CTP) was “Mixed” and the Ki ([4]; variable substrate CTP) was 93 ± 18 nM. For the same molecule, the “uM CMP/uM protein.s-1 (rate of CMP formation)” value ([5]; 0.03125uM 2b, 31.25 uM cysteine) was 0.1688 uM CMP/uM protein.s-1 and 0.1774 uM CMP/uM protein.s-1 and 0.1722 uM CMP/uM protein.s-1, the “uM CMP/uM protein.s-1 (rate of CMP formation)” value ([5]; 0.03125uM 2b, 62.5 uM cysteine) was 0.2177 uM CMP/uM protein.s-1 and 0.2245 uM CMP/uM protein.s-1 and 0.2185 uM CMP/uM protein.s-1 and the “uM CMP/uM protein.s-1 (rate of CMP formation)” value ([5]; 0.03125uM 2b, 250 uM cysteine) was 0.2696 uM CMP/uM protein.s-1 and 0.2689 uM CMP/uM protein.s-1 and 0.2761 uM CMP/uM protein.s-1. The “uM CMP/uM protein.s-1 (rate of CMP formation)” value ([5]; 0.03125uM 2b, 500 uM cysteine) was 0.3036 uM CMP/uM protein.s-1 and 0.2988 uM CMP/uM protein.s-1 and 0.3158 uM CMP/uM protein.s-1, the “uM CMP/uM protein.s-1 (rate of CMP formation)” value ([5]; 0.0625uM 2b, 31.25 uM cysteine) was 0.139 uM CMP/uM protein.s-1 and 0.1432 uM CMP/uM protein.s-1 and 0.1461 uM CMP/uM protein.s-1 and the “uM CMP/uM protein.s-1 (rate of CMP formation)” value ([5]; 0.0625uM 2b, 62.5 uM cysteine) was 0.1762 uM CMP/uM protein.s-1 and 0.1605 uM CMP/uM protein.s-1 and 0.1802 uM CMP/uM protein.s-1. The “uM CMP/uM protein.s-1 (rate of CMP formation)” value ([5]; 0.0625uM 2b, 250 uM cysteine) was 0.2128 uM CMP/uM protein.s-1 and 0.2019 uM CMP/uM protein.s-1 and 0.2135 uM CMP/uM protein.s-1, the “uM CMP/uM protein.s-1 (rate of CMP formation)” value ([5]; 0.0625uM 2b, 500 uM cysteine) was 0.2223 uM CMP/uM protein.s-1 and 0.2126 uM CMP/uM protein.s-1 and 0.2324 uM CMP/uM protein.s-1 and the mode of inhibition ([5]; relative to L-cysteine, in words) was “uncompetitive inhibition”. It also gave an MIC ([6]; 7H9/ADC/Glycerol) of over 250 µM, an MIC ([6]; 7H9/Cholesterol/Tyloxapol) of over 250 µM and an MIC ([6]; GAST/Fe) of 50 µM (≈ 14.3 µg/mL). The “sensitisation on incremental silencing of CoaBC” value [7] was “did not sensitise M. tuberculosis further”.

Source: PMC7794376 (Nature Communications, 2021)
